Results published in article PMC12692861, “Biotin-Linked Ursolic Acid Conjugates as Selective Anticancer Agents and Target-Identification Tools for Cancer Therapy” (Molecules, 2025).

How the values were obtained:
[1] = test system: ATP-binding cassette sub-family A; test: Streptavidin pulldown proteomics (LC-MS/MS), 5637 cells; design: species or system human; settings: 5637, 50 µM
Method: We used proteomics to identify potential molecular targets of 5c. A pulldown assay with streptavidin-agarose-coated magnetic beads was performed. Briefly, 5637 and MB49 cells were incubated with 50 µM 5c for 10 min and 1 h. After incubation, the cells were rinsed three times with cold phosphate-buffered saline (PBS), and cell lysates were prepared and clarified by centrifugation to remove cellular debris, including nuclei. The clarified lysates were incubated with streptavidin-coated magnetic beads to selectively bind biotinylated contents. Bound proteins were separated from unbound proteins through thorough bead washing. Proteins attached to the beads were eluted and analyzed on an Orbitrap Fusion Tribrid mass spectrometer (Thermo Scientific, New York, NY, USA) coupled with an Ultimate 3000 nano-UPLC system. Samples were trapped on a PepMap100 C18 trap column (5 µm, 0.3 × 5 mm) and separated on a PepMap RSLC C18 column (2 µm, 75 µm × 150 mm) using a gradient from 2 to 40% acetonitrile with 0.1% formic acid over 120 min at […] and 40 °C. […] Proteins were identified and quantified based on peptide spectral matches (PSMs), and fold enrichment compared to controls was calculated to evaluate interaction strength. […]

[2] = molecular target: D-3-phosphoglycerate dehydrogenase (Mus musculus, UniProt Q61753); test: Streptavidin pulldown proteomics (LC-MS/MS), MB49 cells; type: binding, murine; settings: MB-49, 50 µM
Sequence of D-3-phosphoglycerate dehydrogenase (Q61753 whole entry, the tested form may be a part): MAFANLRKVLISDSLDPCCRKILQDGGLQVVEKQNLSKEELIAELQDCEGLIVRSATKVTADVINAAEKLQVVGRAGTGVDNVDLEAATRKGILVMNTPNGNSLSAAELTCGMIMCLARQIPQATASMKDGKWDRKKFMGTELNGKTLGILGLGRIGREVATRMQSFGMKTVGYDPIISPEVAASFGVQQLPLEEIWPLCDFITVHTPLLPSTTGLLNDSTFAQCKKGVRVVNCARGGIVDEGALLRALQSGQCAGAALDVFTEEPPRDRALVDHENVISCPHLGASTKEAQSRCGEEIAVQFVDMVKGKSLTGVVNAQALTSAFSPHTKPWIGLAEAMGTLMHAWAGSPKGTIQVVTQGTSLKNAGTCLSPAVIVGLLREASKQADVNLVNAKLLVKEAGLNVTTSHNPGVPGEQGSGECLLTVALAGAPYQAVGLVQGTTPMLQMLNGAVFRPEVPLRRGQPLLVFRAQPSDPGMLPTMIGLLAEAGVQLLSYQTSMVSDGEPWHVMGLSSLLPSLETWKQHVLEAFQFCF
Method: (§1) We used proteomics to identify potential molecular targets of 5c. A pulldown assay with streptavidin-agarose-coated magnetic beads was performed. Briefly, 5637 and MB49 cells were incubated with 50 µM 5c for 10 min and 1 h. After incubation, the cells were rinsed three times with cold phosphate-buffered saline (PBS), and cell lysates were prepared and clarified by centrifugation to remove cellular debris, including nuclei. The clarified lysates were incubated with streptavidin-coated magnetic beads to selectively bind biotinylated contents. Bound proteins were separated from unbound proteins through thorough bead washing. Proteins attached to the beads were eluted and analyzed on an Orbitrap Fusion Tribrid mass spectrometer (Thermo Scientific, New York, NY, USA) coupled with an Ultimate 3000 nano-UPLC system. Samples were trapped on a PepMap100 C18 trap column (5 µm, 0.3 × 5 mm) and separated on a PepMap RSLC C18 column (2 µm, 75 µm × 150 mm) using a gradient from 2 to 40% acetonitrile with 0.1% formic acid over 120 min at […] and 40 °C. MS data were acquired in positive mode using data-dependent acquisition (DDA), with precursor scans at 120,000 FWHM (400–2000 m/z), and MS/MS scans in top-speed mode (3 s cycle) using HCD fragmentation (NCE 32%). Proteins were identified and quantified based on peptide spectral matches (PSMs), and fold enrichment compared to controls was calculated to evaluate interaction strength.
(§2) The 5637 and MB49 cells were cultured and treated with higher concentrations of 5c (50 µM) for short period of times (10 min & 60 min) followed by whole cell lysis (WCL) preparation of both treated and untreated cells using modified RIPA buffer [NaCl (100mM), TrisCl (20mM, pH 7.4), EDTA (10 mM), TritonX-100 (0.5%), Glycerol (5%), Protease inhibitor cocktail (1x)] with gentle continuous rotation. The protein content of each WCL was estimated using Pierce™ BCA Protein Assay kit (Thermo-Scientific # 23225). The 100 µL of resuspended Dynabeads™ MyOne™ Streptavidin C1 (Invitrogen # 65001) were washed with PBST (PBS with 0.01% Tween™20) in a magnet stand as recommended in the manufacturer’s instructions. The washed beads were incubated with 200 µg of each WCL in separate tubes at room temperature for 2 h in a gentle end-over-end mixing. After incubation, beads were washed 3–5 times with PBST (0.01% Tween-20) on a magnetic stand and beads were decanted by after spinning and magnetization. The samples were stored at −80 °C till further analysis using LC-MS/MS by the Proteomics and Mass Spectrometry Core Laboratory of Augusta University.

[3] = test system: DNA topoisomerase; test: as above; type: binding, murine; settings: MB-49, 50 µM
Method: as §1, §2

[4] = molecular target: Elongation factor 2 (eEF2) (Mus musculus, UniProt P58252); test: as above; type: binding, murine; settings: MB-49, 50 µM
Method: as §1, §2

[5] = molecular target: HSC 71 (Mus musculus, UniProt P63017); test: as above; type: binding, murine; settings: MB-49, 50 µM
Sequence of HSC 71 (P63017 whole entry): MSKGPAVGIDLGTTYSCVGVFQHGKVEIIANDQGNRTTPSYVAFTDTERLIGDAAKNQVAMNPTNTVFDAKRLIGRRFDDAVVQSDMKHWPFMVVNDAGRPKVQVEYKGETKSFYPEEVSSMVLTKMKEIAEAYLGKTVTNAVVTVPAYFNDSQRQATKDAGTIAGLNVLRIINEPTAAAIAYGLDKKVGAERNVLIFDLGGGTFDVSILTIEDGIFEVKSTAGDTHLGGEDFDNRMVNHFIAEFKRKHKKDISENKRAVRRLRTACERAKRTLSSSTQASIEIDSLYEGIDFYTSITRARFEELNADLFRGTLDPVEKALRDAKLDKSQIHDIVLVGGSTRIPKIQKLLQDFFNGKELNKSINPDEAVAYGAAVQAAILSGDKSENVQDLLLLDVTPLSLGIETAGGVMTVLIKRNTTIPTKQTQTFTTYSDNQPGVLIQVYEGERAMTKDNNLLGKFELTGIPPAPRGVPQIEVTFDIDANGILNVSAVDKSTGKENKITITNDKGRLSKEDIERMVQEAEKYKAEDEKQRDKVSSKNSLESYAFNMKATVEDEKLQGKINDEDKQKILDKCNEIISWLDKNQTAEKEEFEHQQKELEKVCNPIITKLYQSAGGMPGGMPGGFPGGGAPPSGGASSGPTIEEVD
Method: as §1, §2

[6] = molecular target: Histone H4 (Mus musculus, UniProt P62806); test: as above; type: binding, murine; settings: MB-49, 50 µM
Method: as §1, §2

[7] = molecular target: Receptor of activated protein C kinase 1 (RACK1) (Mus musculus, UniProt P68040); test: as above; type: binding, murine; settings: MB-49, 50 µM
Method: as §1, §2

[8] = molecular target: Ribosomal L1 domain-containing protein 1 (RSL1D1) (Mus musculus, UniProt Q8BVY0); test: as above; type: binding, murine; settings: MB-49, 50 µM
Sequence of Ribosomal L1 domain-containing protein 1 (RSL1D1) (Q8BVY0 whole entry, the tested form may be a part): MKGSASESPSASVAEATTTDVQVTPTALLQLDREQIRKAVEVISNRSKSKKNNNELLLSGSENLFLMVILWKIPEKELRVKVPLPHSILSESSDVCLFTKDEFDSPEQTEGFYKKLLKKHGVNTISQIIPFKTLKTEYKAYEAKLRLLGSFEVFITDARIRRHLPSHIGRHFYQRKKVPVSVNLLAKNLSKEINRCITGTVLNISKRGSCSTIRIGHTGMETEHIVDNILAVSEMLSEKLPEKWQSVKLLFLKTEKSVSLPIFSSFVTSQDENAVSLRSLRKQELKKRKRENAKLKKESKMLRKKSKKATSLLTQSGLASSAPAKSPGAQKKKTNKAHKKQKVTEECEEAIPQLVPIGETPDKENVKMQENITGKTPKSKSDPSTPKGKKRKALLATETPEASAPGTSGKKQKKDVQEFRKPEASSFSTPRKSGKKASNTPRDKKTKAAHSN
Method: as §1, §2

[9] = molecular target: Poly(U)-binding-splicing factor 60 (PUF60) (Homo sapiens, UniProt Q9UHX1); test: Streptavidin pulldown proteomics (LC-MS/MS), 5637 cells; settings: 5637, 50 µM
Sequence of Poly(U)-binding-splicing factor 60 (PUF60) (Homo sapiens, UniProt Q9UHX1) (Q9UHX1 whole entry): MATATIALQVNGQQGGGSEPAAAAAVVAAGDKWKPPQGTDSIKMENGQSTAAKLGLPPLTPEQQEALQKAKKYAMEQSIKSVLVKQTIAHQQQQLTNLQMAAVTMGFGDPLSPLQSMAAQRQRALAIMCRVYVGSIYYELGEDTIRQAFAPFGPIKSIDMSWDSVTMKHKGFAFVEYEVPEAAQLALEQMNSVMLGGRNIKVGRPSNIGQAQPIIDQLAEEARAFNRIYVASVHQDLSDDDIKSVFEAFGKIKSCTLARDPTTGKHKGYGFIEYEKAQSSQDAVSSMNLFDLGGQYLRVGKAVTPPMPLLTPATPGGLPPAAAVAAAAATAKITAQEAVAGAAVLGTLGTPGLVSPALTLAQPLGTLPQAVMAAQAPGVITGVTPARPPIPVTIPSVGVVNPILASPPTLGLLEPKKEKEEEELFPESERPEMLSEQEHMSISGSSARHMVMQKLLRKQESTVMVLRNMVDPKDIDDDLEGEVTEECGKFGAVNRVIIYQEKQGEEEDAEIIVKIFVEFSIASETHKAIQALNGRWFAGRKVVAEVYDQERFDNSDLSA
Method: as §1, §2

[10] = molecular target: RNA-binding protein 39 (RBM39) (Homo sapiens, UniProt Q14498); test: as above; settings: 5637, 50 µM
Sequence of RNA-binding protein 39 (RBM39) (Homo sapiens, UniProt Q14498) (Q14498 whole entry): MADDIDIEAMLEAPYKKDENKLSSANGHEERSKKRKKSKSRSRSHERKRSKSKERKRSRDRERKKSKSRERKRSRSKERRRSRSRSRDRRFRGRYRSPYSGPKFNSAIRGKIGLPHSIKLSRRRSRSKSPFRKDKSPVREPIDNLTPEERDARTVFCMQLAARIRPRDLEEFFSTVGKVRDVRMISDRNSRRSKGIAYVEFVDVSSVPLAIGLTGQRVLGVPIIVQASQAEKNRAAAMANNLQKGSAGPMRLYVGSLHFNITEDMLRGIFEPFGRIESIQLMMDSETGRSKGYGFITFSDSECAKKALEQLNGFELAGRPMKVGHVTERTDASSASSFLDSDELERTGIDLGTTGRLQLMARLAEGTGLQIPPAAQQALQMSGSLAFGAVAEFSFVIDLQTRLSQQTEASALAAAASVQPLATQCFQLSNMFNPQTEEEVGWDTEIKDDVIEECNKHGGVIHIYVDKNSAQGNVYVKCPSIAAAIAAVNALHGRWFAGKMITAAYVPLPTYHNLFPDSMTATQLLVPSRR
Method: as §1, §2

[11] = test system: ATP-binding cassette sub-family A; test: Streptavidin pulldown proteomics (LC-MS/MS), MB49 cells; design: species or system murine; settings: MB-49, 50 µM
Method: as §1, §2

[12] = molecular target: Poly(U)-binding-splicing factor 60 (PUF60) (Mus musculus, UniProt Q3UEB3); test: as above; design: species or system murine; settings: MB-49, 50 µM
Sequence of Poly(U)-binding-splicing factor 60 (PUF60) (Mus musculus, UniProt Q3UEB3) (Q3UEB3 whole entry): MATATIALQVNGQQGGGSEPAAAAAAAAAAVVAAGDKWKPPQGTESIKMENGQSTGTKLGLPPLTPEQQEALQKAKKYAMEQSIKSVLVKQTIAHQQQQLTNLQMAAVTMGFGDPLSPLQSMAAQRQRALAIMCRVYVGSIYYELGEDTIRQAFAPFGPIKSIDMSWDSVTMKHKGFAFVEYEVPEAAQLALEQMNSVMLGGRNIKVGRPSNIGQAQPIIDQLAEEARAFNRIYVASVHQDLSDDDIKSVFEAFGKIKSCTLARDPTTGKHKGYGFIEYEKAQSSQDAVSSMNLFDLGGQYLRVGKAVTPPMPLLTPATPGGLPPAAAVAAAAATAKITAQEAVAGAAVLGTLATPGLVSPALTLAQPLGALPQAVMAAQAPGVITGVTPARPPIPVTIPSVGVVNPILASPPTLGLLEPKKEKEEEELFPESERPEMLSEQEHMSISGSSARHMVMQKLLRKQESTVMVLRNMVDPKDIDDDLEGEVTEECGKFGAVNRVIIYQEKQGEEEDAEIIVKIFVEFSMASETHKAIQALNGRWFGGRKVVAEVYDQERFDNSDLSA
Method: as §1, §2

[13] = test system: RNA-binding protein 39 (RBM39); test: as above; design: species or system murine; settings: MB-49, 50 µM
Method: as §1, §2

SMILES: CC1CCC2(C(=O)OCCCCOC(=O)CCCCC3SCC4NC(=O)NC43)CCC3(C)C(=CCC4C5(C)CCC(O)C(C)(C)C5CCC43C)C2C1C [Compound 5c, 4-((5-((3aS,4S,6aR)-2-Oxohexahydro-1H-thieno [3,4-d]imidazol-4-yl)pentanoyl)oxy) butyl 3-hydroxy-urs-12-en-28-oate]
- Fold Change 10 min/Ctrl [1]: 3
- Fold Change 1 h/Ctrl [1]: 5
- Fold Change 10 min/Ctrl [2]: 0.8
- Fold Change 1 h/Ctrl [2]: 1.6
- Fold Change 10 min/Ctrl [3]: 1
- Fold Change 1 h/Ctrl [3]: 1.75
- Fold Change 10 min/Ctrl [4]: 3
- Fold Change 1 h/Ctrl [4]: 2
- Fold Change 10 min/Ctrl [5]: 1.5
- Fold Change 1 h/Ctrl [5]: 2
- Fold Change 10 min/Ctrl [6]: 1.64
- Fold Change 1 h/Ctrl [6]: 1.18
- Fold Change 10 min/Ctrl [7]: 0.88
- Fold Change 1 h/Ctrl [7]: 1.29
- Fold Change 10 min/Ctrl [8]: 1.33
- Fold Change 1 h/Ctrl [8]: 1.56
- Fold Change 10 min/Ctrl [9]: 6
- Fold Change 1 h/Ctrl [9]: 5
- Fold Change 10 min/Ctrl [10]: 3.5
- Fold Change 1 h/Ctrl [10]: 3
- Fold Change 10 min/Ctrl [11]: 1
- Fold Change 1 h/Ctrl [11]: 2
- Fold Change 10 min/Ctrl [12]: 2.33
- Fold Change 1 h/Ctrl [12]: 3.33
- Fold Change 10 min/Ctrl [13]: 2
- Fold Change 1 h/Ctrl [13]: 1.71
